The assay has as its target human ACC2 (Homo sapiens (Human), UniProt O00763). As to the kind of experiment: ACC2 assay (spectrophotometric 384 well assay, NADH-linked coupled lactate dehydrogenase/pyruvate kinase). The assay is classed as biochemical. On the procedure: Spectrophotometric 384 Well Assay
Malonyl CoA formation by acetyl CoA carboxylases is stoichometrically linked to the consumption of ATP. ACC2 activity is measured in a NADH-linked kinetic method measuring ADP generated during the ACC reaction using a coupled lactate dehydrogenase/pyruvate kinase reaction.
For biological testing, a human ACC2 construct which lacks the 128 amino acids at the N-terminus for increased solubility (nt 385-6966 in Genbank entry AJ575592) is cloned. The protein is then expressed in insect cells using a baculoviral expression system. Protein purification is performed by anion exchange.
All compounds are dissolved in dimethyl sulfoxide (DMSO) to a concentration of 10 mM.
Assay reactions are then carried out in 384-well plates, with hACC2 in an appropriate dilution and at final assay concentrations (f.c.) of 100 mM Tris (pH 7.5), 10 mM trisodium citrate, 25 mM KHCO3, 10 mM MgCl2, 0.5 mg/ml BSA, 3.75 mM reduced L-glutathione, 15 U/ml lactate dehydrogenase, 0.5 mM phosphoenolpyruvate, 15 U/ml pyruvate kinase, compounds at different concentrations at final DMSO concentrations of 1%.
The enzymatic reaction is then started by addition of a mixture of NADH, acetyl Coenzyme A (both 200 μM f.c.) and ATP (500 uM f.c.). The decrease of the optical density (slope S) is then determined at 25° C. at a wavelength of 340 nm over 15 minutes in a spectrophotometric reader.
Each assay microtiter plate contains wells with vehicle instead of compound as controls for the non-inhibited enzyme (100% CTL; ‘HIGH’) and wells without acetyl-CoA as controls for non-specific NADH degradation (0% CTL; ‘LOW’).
The slope S is used for calculation of % CTL=(S(compound)−S(‘LOW’))/(S(‘HIGH’)—S(‘LOW’))*100. Compounds will give values between 100% CTL (no inhibition) and 0% CTL (complete inhibition).
For IC50 value determination, the sample slope in the presence of the test compound after subtraction of the low controls (S(compound)−S(‘LOW’)) are used.
An IC50 value is derived from the compound slopes at different dosages after subtraction of the low controls (S(compound)−S(‘LOW’)) by non-linear regression curve fitting (equation y=(A+((B−A)/(1+((C/x)^D))))).

Where [1] appears, read: hACC2 construct lacking 128 N-terminal amino acids, 25° C., 340 nm, 15 minutes.

Where two headings read alike, the source gives them in different places.

human ACC2, sequence (O00763 129-2458): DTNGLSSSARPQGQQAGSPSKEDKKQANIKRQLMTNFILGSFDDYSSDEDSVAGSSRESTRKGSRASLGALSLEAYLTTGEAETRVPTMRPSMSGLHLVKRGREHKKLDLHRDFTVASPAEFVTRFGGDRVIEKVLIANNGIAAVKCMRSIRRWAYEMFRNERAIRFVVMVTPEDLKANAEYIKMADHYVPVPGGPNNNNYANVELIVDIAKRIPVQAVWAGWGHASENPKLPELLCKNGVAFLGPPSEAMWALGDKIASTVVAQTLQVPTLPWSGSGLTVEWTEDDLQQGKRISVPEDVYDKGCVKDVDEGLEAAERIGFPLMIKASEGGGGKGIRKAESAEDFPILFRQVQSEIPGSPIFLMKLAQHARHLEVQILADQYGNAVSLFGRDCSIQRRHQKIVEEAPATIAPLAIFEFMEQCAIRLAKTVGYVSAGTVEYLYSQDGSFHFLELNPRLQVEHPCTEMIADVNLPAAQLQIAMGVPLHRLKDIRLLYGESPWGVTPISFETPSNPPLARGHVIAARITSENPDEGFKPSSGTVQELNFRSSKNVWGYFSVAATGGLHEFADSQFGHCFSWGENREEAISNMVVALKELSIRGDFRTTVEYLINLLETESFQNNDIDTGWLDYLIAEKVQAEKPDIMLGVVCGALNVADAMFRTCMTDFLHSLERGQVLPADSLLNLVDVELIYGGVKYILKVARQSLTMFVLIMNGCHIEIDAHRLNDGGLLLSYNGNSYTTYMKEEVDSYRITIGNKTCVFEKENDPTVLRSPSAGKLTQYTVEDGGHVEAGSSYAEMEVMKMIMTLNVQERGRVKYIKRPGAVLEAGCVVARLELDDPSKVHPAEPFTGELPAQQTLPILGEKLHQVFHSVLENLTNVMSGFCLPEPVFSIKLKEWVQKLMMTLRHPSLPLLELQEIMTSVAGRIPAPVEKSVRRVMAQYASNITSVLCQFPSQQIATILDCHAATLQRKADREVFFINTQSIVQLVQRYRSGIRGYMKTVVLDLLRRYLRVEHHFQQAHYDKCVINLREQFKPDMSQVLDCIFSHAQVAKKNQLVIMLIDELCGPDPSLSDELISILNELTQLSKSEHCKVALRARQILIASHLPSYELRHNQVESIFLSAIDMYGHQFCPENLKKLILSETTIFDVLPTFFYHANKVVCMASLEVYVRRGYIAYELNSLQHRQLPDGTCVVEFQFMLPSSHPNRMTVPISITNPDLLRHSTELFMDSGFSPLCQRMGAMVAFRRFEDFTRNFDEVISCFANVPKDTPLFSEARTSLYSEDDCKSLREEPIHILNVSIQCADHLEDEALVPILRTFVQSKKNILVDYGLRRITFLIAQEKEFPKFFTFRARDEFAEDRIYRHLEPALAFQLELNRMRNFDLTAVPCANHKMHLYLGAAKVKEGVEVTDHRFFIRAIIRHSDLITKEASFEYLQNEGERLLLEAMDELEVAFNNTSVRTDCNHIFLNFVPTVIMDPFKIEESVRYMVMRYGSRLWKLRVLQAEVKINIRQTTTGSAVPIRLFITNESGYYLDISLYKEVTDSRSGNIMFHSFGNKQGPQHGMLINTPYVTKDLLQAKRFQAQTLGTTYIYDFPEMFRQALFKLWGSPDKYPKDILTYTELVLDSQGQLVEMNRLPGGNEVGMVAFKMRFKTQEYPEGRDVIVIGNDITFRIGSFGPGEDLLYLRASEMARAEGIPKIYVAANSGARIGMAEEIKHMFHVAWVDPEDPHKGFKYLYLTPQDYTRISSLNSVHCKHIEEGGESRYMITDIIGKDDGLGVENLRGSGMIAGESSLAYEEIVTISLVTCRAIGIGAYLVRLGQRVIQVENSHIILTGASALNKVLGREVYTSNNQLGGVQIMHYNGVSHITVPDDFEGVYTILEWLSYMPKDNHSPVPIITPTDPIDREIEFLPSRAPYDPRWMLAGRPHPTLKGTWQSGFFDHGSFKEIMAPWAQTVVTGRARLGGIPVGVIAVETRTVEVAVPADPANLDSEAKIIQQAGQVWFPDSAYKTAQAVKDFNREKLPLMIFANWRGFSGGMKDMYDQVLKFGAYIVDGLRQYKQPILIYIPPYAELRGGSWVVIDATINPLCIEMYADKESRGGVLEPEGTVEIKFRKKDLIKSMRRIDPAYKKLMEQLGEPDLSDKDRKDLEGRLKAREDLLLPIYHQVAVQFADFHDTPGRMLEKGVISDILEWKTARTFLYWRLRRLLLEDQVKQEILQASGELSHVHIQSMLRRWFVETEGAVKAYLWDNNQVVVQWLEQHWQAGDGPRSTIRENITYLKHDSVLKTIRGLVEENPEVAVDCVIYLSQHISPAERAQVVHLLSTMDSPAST

`CC(=O)N[C@@H](C)c1ccc(OC2CN(c3c(F)cc(OC4CC4)cc3F)C2)cc1` [Example 1.45]: under setting [1], it took 130 nM to reach half-maximal inhibition (IC50). This counts as sub-micromolar.

`CCOc1ccc(N2CC(Oc3ccc([C@H](C)NC(=O)c4ccno4)cc3)C2)cc1` [Example 8.31] showed an IC50 under setting [1] of 1090 nM. Compared with the last molecule, the IC50 is about 8.4-fold higher. The same measure, in the same setting: the value for `CCOc1ccc(N2CC(Oc3ccc([C@H](C)NC(=O)c4ccns4)cc3)C2)cc1` [Example 8.34] was 810 nM; that for `CCOc1ccc(N2CC(Oc3ccc([C@H](C)NC(=O)CN(C)C)cc3)C2)cc1` [Example 8.23] was 5790 nM. The same measure, in the same setting: in the case of `CC(=O)N[C@@H](C)c1ccc(OC2CN(c3ccc4oc(C)nc4c3)C2)cc1` [Example 1.27] it was 1750 nM. `CCOc1ccc(N2CC(Oc3ccc([C@H](C)NC(=O)C4CC(C)C4)cc3)C2)cc1` (stereo partly shown) [Example 8.27] displayed an IC50 under setting [1] of 760 nM.

Take `CC(=O)N[C@@H](C)c1ccc(OC2CN(c3nc(-c4ccccc4)no3)C2)cc1` [Example 4.41]: under setting [1], the IC50 came out at 3480 nM.

As to `CCCOc1ccc(N2CC(Oc3ccc([C@H](C)NC(=O)N(C)C)cc3)C2)c(OC)c1` [Example 10.5], the IC50 under setting [1] worked out at 480 nM. The same measure, in the same setting: in the case of `CC(=O)N[C@@H](C)c1ccc(OC2CN(c3ccc(OCC4CC4)cc3)C2)cn1` (stereo in doubt) [Example 14, N-(1-{5-[1-(4-Cyclopropylmethoxy-phenyl)-azetidin-3-yloxy]-pyridin-2-yl}-ethyl)-acetamide] it was 2040 nM; in that of `CC(=O)N[C@@H](C)c1ccc(OC2CN(c3ccc(OCC4CC4)cc3C#N)C2)cc1` [Example 1.47], 400 nM; in that of `CC(=O)N[C@@H](C)c1ccc(OC2CN(c3ccnc(C(F)(F)F)c3)C2)cc1` [Example 4.29], 1170 nM. As to `CCCOc1ccc(N2CC(Oc3ccc([C@H](C)NC(C)=O)cc3)C2)c(C#N)n1` [Example 1.59], under setting [1], the IC50 was found to be 300 nM. This IC50 lies about 3.9-fold lower than the previous one. Same read-out and setting: in the case of `C[C@H](NC(=O)CC#N)c1ccc(OC2CN(c3ncc(C4CC4)cn3)C2)cc1` [Example 8.6] it was 1770 nM. The molecule `CC(=O)N[C@@H](C)c1ccc(OC2CN(c3ccc(C(F)(F)F)cn3)C2)cc1` [Example 4.19] gave an IC50 under setting [1] of 200 nM. On the same count and under the same terms, the value for `CCOc1ccc(N2CC(Oc3ccc([C@H](C)NC(=O)c4cnco4)cc3)C2)cc1` [Example 8.33] was 190 nM; that for `CC(=O)N[C@@H](C)c1ccc(OC2CN(c3ccnc(C(F)(F)F)n3)C2)cc1` [Example 4.9] was 720 nM; that for `CCOC(=O)c1cc(C#N)c(N2CC(Oc3ccc([C@H](C)NC(C)=O)cc3)C2)nc1C(F)(F)F` [Example 4.36] was 1140 nM. Still for that read-out and setting: the value for `CC(=O)N[C@@H](C)c1ccc(OC2CN(c3ccnc(N(C)CC4CC4)n3)C2)cc1` [Example 12.2] was 700 nM; that for `CC(=O)N[C@@H](C)c1ccc(OC2CN(c3cc(Br)ccn3)C2)cc1` [Example 4.18] was 1800 nM. Same read-out and setting: the value for `CC(=O)N[C@@H](C)c1ccc(OC2CN(c3nnc(-c4ccccc4)s3)C2)cc1` [Example 3.9] was 3820 nM; that for `CC(=O)N[C@@H](C)c1ccc(OC2CN(c3ccc4oc(-c5ccccc5)nc4c3)C2)cc1` [Example 1.28] was 1620 nM. On to `CCOc1ccc(N2CC(Oc3ccc([C@H](C)NC(=O)c4csc(NC(C)=O)n4)cc3)C2)cc1` [Example 8.35], for which half-maximal inhibition under setting [1] (IC50) was put at 3160 nM. Compared with the last molecule, the IC50 is about 2-fold higher. Same read-out and setting: the value for `CC(=O)N[C@@H](C)c1ccc(OC2CN(c3ccc4cc(Cl)ccc4n3)C2)cc1` [Example 4.15] was 690 nM. On to `CCOc1cc(N2CC(Oc3ccc([C@H](C)NC(C)=O)cc3)C2)ncn1` [Example 11.3], for which, under setting [1], the 50% inhibitory concentration (IC50) was 11800 nM.

For the molecule `CC(=O)N[C@@H](C)c1ccc(OC2CN(c3nc(C(F)(F)F)ccc3F)C2)cc1` [Example 4.43], the midpoint of inhibition under setting [1], the IC50, lay at 530 nM. The same measure, in the same setting: in the case of `COC(=O)N[C@@H](C)c1ccc(OC2CN(c3ncc(C4CC4)cn3)C2)cc1` [Example 10.6] it was 420 nM; in that of `CCOc1ccc(N2CC(Oc3ccc([C@H](C)NC(=O)C4CCOC4)cc3)C2)cc1` (stereo partly shown) [Example 8.46], 1190 nM; in that of `CCOc1ccc(N2CC(Oc3ccc([C@H](C)NC(=O)c4nc(C)sc4C)cc3)C2)cc1` [Example 8.22], 1870 nM. Still for that read-out and setting: in the case of `CCC(C)Oc1ccc(N2CC(Oc3ccc([C@H](C)NC(C)=O)cc3)C2)c(OC)c1` (stereo partly shown) [Example 1.38] it was 2310 nM; in that of `C[C@H](NC(=O)N(C)C)c1ccc(OC2CN(c3ccc(OCC4CC4)cc3)C2)cc1` [Example 1.33], 200 nM. As for `CC(=O)N[C@@H](C)c1ccc(OC2CN(c3ccc(OC4CCC4)cc3C#N)C2)cc1` [Example 1.46], half-maximal inhibition under setting [1] (IC50) was put at 170 nM. The IC50 values of the last two molecules are within 1.5-fold of each other. `CC(=O)NC(C)c1ccc(OC2CN(c3ncc(Br)cn3)C2)cc1` (stereo not shown) [Example 1.8] had an IC50 under setting [1] of 550 nM. This IC50 is about 3.2-fold higher than that of the molecule before. In the case of `CCOC(=O)c1cnc(N2CC(Oc3ccc([C@H](C)NC(C)=O)cc3)C2)nc1C(F)(F)F` [Example 4.33], the midpoint of inhibition under setting [1], the IC50, lay at 1730 nM. Under setting [1], `CCCOc1cccc(N2CC(Oc3ccc([C@H](C)NC(=O)N(C)C)cc3)C2)c1` [Example 1.42] came in with a half-maximal inhibitory concentration (IC50) of 1050 nM. The same measure, in the same setting: the value for `CC(=O)N[C@@H](C)c1ccc(OC2CN(c3ncc(C)cn3)C2)cc1` [Example 5.2] was 2180 nM; that for `CC(=O)N[C@@H](C)c1ccc(OC2CN(c3noc4ccccc34)C2)cc1` [Example 4.25] was 750 nM.

Under setting [1], `CCOc1ccc(N2CC(Oc3ccc(C(C)NC(C)=O)cc3)C2)cc1` (stereo not shown) [Example 1.5] had an IC50 of 200 nM. The same measure, in the same setting: in the case of `CCCOc1ccc(N2CC(Oc3ccc([C@H](C)NC(C)=O)cc3)C2)nc1` [Example 1.52] it was 90 nM; in that of `CCOc1ccc(N2CC(Oc3ccc(CC(C)NC(C)=O)cc3)C2)cc1` (stereo not shown) [Example 1.12], 5340 nM; in that of `CCCOc1ccc(N2CC(Oc3ccc([C@H](C)NC(C)=O)cc3)C2)cc1` [Example 1.13], 70 nM. On the same count and under the same terms, the value for `CCOc1ccc(N2CC(Oc3ccc([C@H](C)NC(=O)c4sc(NC(C)=O)nc4C)cc3)C2)cc1` [Example 8.28] was 170 nM; that for `CCCOc1cc(N2CC(Oc3ccc([C@H](C)NC(C)=O)cc3)C2)ncn1` [Example 11.1, (S)—N-(1-(4-(1-(6-Propoxypyrimidin-4-yl)azetidin-3-yloxy)phenyl)ethyl)acetamide] was 6010 nM; that for `COc1ccc(N2CC(Oc3ccc([C@H](C)NC(C)=O)cc3)C2)c(C#N)c1` [Example 1.22] was 1180 nM. Same read-out and setting: the value for `CC(=O)N[C@@H](C)c1ccc(OC2CN(c3cnc(NC4CCC4)nc3)C2)cc1` [Example 1.15] was 180 nM; that for `CC(=O)N[C@@H](C)c1ccc(OC2CN(c3cc(C(F)(F)F)ccn3)C2)cc1` [Example 4.20] was 770 nM. For `C[C@H](NC(=O)C1CC1)c1ccc(OC2CN(c3ccc4c(c3)OCCO4)C2)cc1` [Example 1.41], under setting [1], 1230 nM corresponded to half-maximal inhibition (IC50).

`CCCOc1ccnc(N2CC(Oc3ccc([C@H](C)NC(C)=O)cc3)C2)c1` [Example 2.12] registered an IC50 under setting [1] of 4500 nM.

Under setting [1], `CCOc1ccc(N2CC(Oc3ccc([C@H](C)NC(=O)N(C)C)cc3)C2)cc1` [Example 10.3] came in with an IC50 of 670 nM. The molecule `CC(=O)N[C@@H](C)c1ccc(OC2CN(c3ccc(OCC4CC4)nc3)C2)cc1` [Example 2.1, (S)—N-(1-(4-(1-(6-(Cyclopropylmethoxy)Pyridin-3-yl)azetidin-3-yloxy)phenyl)ethyl)-acetamide] gave a half-inhibitory concentration (IC50) of 880 nM.

Consider `CCCOc1ccc(N2CC(Oc3ccc([C@H](C)NC(=O)N(C)C)cc3)C2)cc1` [Example 1.31], for which, under setting [1], it took 190 nM to reach half-maximal inhibition (IC50). This lies in the sub-micromolar range. Still for that read-out and setting: the value for `CC(=O)N[C@@H](C)c1ccc(OC2CN(c3ccc(F)c(C(F)(F)F)n3)C2)cc1` [Example 4.37] was 290 nM; that for `COc1cc(OC2CCC2)ccc1N1CC(Oc2ccc([C@H](C)NC(C)=O)cc2)C1` [Example 1.20] was 490 nM. Same read-out and setting: in the case of `CC(=O)N[C@@H](C)c1ccc(OC2CN(c3cncc(C(F)(F)F)c3)C2)cc1` [Example 4.40] it was 1050 nM; in that of `CC(=O)N[C@@H](C)c1ccc(OC2CN(c3nc4ccccc4s3)C2)cc1` [Example 4.13], 250 nM. The same measure, in the same setting: in the case of `CCOc1ccc(N2CC(Oc3ccc([C@H](C)NC(=O)C4CCC4)cc3)C2)cc1` [Example 8.20] it was 480 nM.

For `CCCOc1ccc(N2CC(Oc3ccc([C@H](C)NC(=O)C4CC4)cc3)C2)cc1` [Example 1.35], under setting [1], the IC50 is 60 nM.

Under setting [1], `CC(=O)N[C@@H](C)c1ccc(OC2CN(c3ncc(Br)cn3)C2)cc1` [Example 3.1, (S)—N-(1-(4-(1-(5-bromopyrimidin-2-yl)azetidin-3-yloxy)phenyl)ethyl)acetamide] yielded a half-inhibitory concentration (IC50) of 210 nM. In turn, `C[C@H](NC(=O)C1CC1)c1ccc(OC2CN(c3ccc(OC4CC4)cc3)C2)cc1` [Example 1.39] returned an IC50 under setting [1] of 350 nM. This IC50 lies about 1.7-fold higher than the previous one.

By IC50 is commonly meant the concentration at which inhibition is half-maximal. A lower IC50 goes with higher potency.

These data come from patent publication US8530460B2, “Azetidine derivatives” (Boehringer Ingelheim International GmbH, priority 2011, dated 2013).
